We go through nine molecules from US20100331312A1, “MODULATORS OF THE HISTAMINE H3 RECEPTOR USEFUL FOR THE TREATMENT OF DISORDERS RELATED THERETO” (ARENA PHARMACEUTICALS, INC., priority 2008, published 2010).

Structures can show the parent of a compound that is named as a salt.

Series [1] addresses T1, Histamine H3 Receptor (Rattus norvegicus, UniProt Q9QYN8). Description: Blockade of RAMH-induced drinking assay. It is filed as in vivo. The note with it: male Sprague Dawley rats, 0.3 mg/kg PO, RAMH 3 mg/kg SC, reduction in water intake. As for the experimental part:
Blockade of RAMH-Induced Drinking Assay
When administered to rodents, histamine H3 receptor agonists such as (R)-α-methylhistamine (RAMH) induce a drinking response that is sensitive to reversal with a histamine H3 receptor antagonist. Blockade of RAMH-induced drinking can therefore be utilized as an in vivo assay for functional histamine H3 receptor antagonist activity. In this assay, male Sprague Dawley rats (250-350 g) were housed three per cage and maintained under a reverse 12 h light cycle (lights off at 1130 h). At 1030 h on the day of test, rats were individually housed in new cages and food was removed. 120 min later, rats were administered test article (vehicle or histamine H3 receptor antagonist, 0.3 mg/kg PO). 30 min later, water was removed, and RAMH (vehicle or RAMH 3 mg/kg salt SC) was administered. 10 min after administration of RAMH, weighed water bottles were placed in the cages, and drinking was allowed for 20 min. Water consumption was determined for each animal by weighing each bottle to the nearest 0.1 g. Data is expressed as percentage reduction in water intake according to the following formula:
[((VEH/RAMH)−(ANTAGONIST/RAMH))/((VEH/RAMH)−(VEH/VEH))]*100

Series [2] concerns the target T1, Histamine H3 Receptor. Description: [3H] N-alpha-methyl-histamine competitive histamine H3 receptor binding assay. The note with it: whole rat brain cortex membranes, [3H]-N-α-methylhistamine 1 nM. More on the design: A crude membrane fraction was prepared from whole rat brain cortex; from tissue; host or cells: whole rat brain cortex, crude membrane fraction. As for the experimental part: [^3H] N-Alpha-Methyl-Histamine Competitive Histamine H3 Receptor Binding Assay
The histamine receptor binding assay was conducted using standard laboratory procedures as described below. A crude membrane fraction was prepared from whole rat brain cortex using a polytron to homogenize the tissue followed by differential centrifugation in a HEPES-based buffer containing protease inhibitors. Membranes where frozen at −80° C. until needed. Frozen membranes were thawed and resuspended in ice-cold assay buffer consisting of 50 mM TRIS containing 5 mM EDTA (pH=7.4). 50 micrograms (μg) of membrane protein was added to each well of a 96-well assay plate along with test compound and [^3H]-N-α-methylhistamine (1 nanomolar (nM) final assay concentration). Imetit was used as an assay positive control at varying concentrations. The plate was incubated for 30 min at room temperature. The assay was terminated by rapid filtration through a 96-well glass fiber filtration plate (GF/C) using a cell harvester (Perkin-Elmer). Captured membranes were washed three times with cold assay buffer and plates were dried at 50° C. 35 microliters (μL) of scintillation cocktail was added to each well and membrane-bound radioactivity was recorded using a TopCount 96-well plate scintillation counter (Perkin-Elmer).

Series [3] deals with T2, human histamine H3 receptor (Homo sapiens, UniProt Q9Y5N1).
T2 construct: purchased MDS Pharma Services (Taiwan) 239810
T2 sequence (Q9Y5N1 whole entry): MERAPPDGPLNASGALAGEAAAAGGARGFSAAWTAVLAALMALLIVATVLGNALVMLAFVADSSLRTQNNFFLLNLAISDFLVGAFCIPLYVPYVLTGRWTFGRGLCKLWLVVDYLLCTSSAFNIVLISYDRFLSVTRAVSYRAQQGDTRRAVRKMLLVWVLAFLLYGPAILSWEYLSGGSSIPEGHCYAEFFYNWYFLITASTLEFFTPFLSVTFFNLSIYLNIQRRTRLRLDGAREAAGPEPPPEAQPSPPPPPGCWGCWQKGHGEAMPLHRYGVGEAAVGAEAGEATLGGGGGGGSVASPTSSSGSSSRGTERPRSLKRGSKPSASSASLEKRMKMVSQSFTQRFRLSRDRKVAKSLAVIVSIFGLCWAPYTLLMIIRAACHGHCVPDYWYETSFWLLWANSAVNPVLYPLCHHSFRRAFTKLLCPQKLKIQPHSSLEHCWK
Description: Human histamine H3 receptor binding assay, MDS Pharma Services (Taiwan), Catalogue No. 239810. As for the experimental part: Human Histamine H3 Receptor Binding Assay—MDS Pharma Services (Taiwan)
Compounds of the invention were tested for their ability to bind to the human histamine H3 receptor using the MDS Pharma Services (Taiwan) assay, Catalogue No. 239810.

A short description of series [4]: Dynamic vapor sorption (DVS) hygroscopicity. The note with it: 25° C. It is filed as physicochemical. As for the experimental part: Dynamic Vapor Sorption (DVS)
Hygroscopicity was measured using a dynamic moisture-sorption analyzer, VTI Corporation, SGA-100. The sample was placed as-is in a tared sample holder on the VTI balance. A drying step was run at 40° C. and ˜1% RH for 120 minutes. The isotherm conditions are 25° C. with steps of 20% RH from 10% RH up to 90% RH and back to 10% RH. Weight is checked every 2 minutes. Percent weight change of <0.01% in 20 minutes or 2 hours, whichever occurs first, is required before continuing to the next step. The DVS profile for the crystalline form (Form 1) of (R)-2-hydroxy-1-(6-(4-(2-(2-methylpyrrolidin-1-yl)ethyl)phenyl)-3,4-dihydroisoquinolin-2(1H)-yl)ethanone hydrochloride is shown in FIG. 16.

T1 sequence (Q9QYN8 whole entry): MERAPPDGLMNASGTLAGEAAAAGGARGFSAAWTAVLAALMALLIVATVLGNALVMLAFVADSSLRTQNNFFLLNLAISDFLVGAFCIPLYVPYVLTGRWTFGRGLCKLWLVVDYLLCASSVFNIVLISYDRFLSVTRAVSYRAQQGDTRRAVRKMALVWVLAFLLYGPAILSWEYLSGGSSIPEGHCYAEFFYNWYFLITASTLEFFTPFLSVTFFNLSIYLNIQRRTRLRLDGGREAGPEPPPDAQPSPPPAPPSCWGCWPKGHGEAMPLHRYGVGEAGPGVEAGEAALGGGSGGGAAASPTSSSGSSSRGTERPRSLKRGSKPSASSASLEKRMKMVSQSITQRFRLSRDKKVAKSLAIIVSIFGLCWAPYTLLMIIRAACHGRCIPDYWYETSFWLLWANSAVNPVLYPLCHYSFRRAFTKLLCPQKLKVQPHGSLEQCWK

`COCCC(=O)N1CCc2ccc(-c3ccc(CCN4CCC[C@H]4C)cc3)cc2C1` [Compound 1, (R)-3-methoxy-1-(7-(4-(2-(2-methylpyrrolidin-1-yl)ethyl)phenyl)-3,4-dihydroisoquinolin-2(1H)-yl)propan-1-one]: at Histamine H3 Receptor [1], the “% inhibition of RAMH-induced drinking” value was determined as 81.6%.

Broadly, the Ki is a measure of affinity in units of concentration, obtained from inhibition or displacement. A low value points to higher affinity. `C[C@@H]1CCCN1CCc1ccc(-c2ccc3c(c2)CCN(C(=O)C2CC2)C3)cc1` [Compound 3, (R)-cyclopropyl(6-(4-(2-(2-methylpyrrolidin-1-yl)ethyl)phenyl)-3,4-dihydroisoquinolin-2(1H)-yl)methanone] gave a Ki at Histamine H3 Receptor [2] of 0.45 nM. With `C[C@@H]1CCCN1CCc1ccc(-c2ccc3c(c2)CN(C(=O)C2CC2)C3)cc1` [Compound 5, (R)-cyclopropyl(5-(4-(2-(2-methylpyrrolidin-1-yl)ethyl)phenyl)isoindolin-2-yl)methanone], the Ki in series [3] amounted to 0.57 nM; on Histamine H3 Receptor [2] it was 0.11 nM. Turning to `COc1ccc(C(=O)N2CCc3cc(-c4ccc(CCN5CCC[C@H]5C)cc4)ccc3C2)cc1` [Compound 9, (R)-(4-methoxyphenyl)(6-(4-(2-(2-methylpyrrolidin-1-yl)ethyl)phenyl)-3,4-dihydroisoquinolin-2(1H)-yl)methanone], the affinity on Histamine H3 Receptor [2] corresponds to a Ki of 1.1 nM. With `C[C@@H]1CCCN1CCc1ccc(-c2ccc3c(c2)CCN(C(=O)CO)C3)cc1` [Compound 10 HCl Salt (Form 1), (R)-2-hydroxy-1-(6-(4-(2-(2-methylpyrrolidin-1-yl)ethyl)phenyl)-3,4-dihydroisoquinolin-2(1H)-yl)ethanone hydrochloride], the “DVS absorption at 90% relative humidity” value was “FIG. 16: absorption of less than 0.25%” in series [4] (crystalline Form 1, hydrochloride) and “about 0.25%” in series [4] (crystalline Form 1, listed as Form 1 of the HCl salt of Compound 10, hydrochloride).

`C[C@@H]1CCCN1CCc1ccc(-c2ccc3c(c2)CN(C(=O)C2CCOCC2)C3)cc1` [Compound 12, (R)-(5-(4-(2-(2-methylpyrrolidin-1-yl)ethyl)phenyl)isoindolin-2-yl)(tetrahydro-2H-pyran-4-yl)methanone] returned a Ki on Histamine H3 Receptor [2] of 0.09 nM. As for `C[C@@H]1CCCN1CCc1ccc(-c2ccc3c(c2)CCN(C(=O)c2ccncc2)C3)cc1` [Compound 14, (R)-(6-(4-(2-(2-methylpyrrolidin-1-yl)ethyl)phenyl)-3,4-dihydroisoquinolin-2(1H)-yl)(pyridin-4-yl)methanone], the “% inhibition of RAMH-induced drinking” value on Histamine H3 Receptor [1] came to 40.7%. At Histamine H3 Receptor [2], `C[C@@H]1CCCN1CCc1ccc(-c2ccc3c(c2)CCN(C(=O)CCO)C3)cc1` [Compound 16, (R)-3-hydroxy-1-(6-(4-(2-(2-methylpyrrolidin-1-yl)ethyl)phenyl)-3,4-dihydroisoquinolin-2(1H)-yl)propan-1-one] displayed a Ki of 1.52 nM. `C[C@@H]1CCCN1CCc1ccc(-c2ccc3c(c2)CCN(C(=O)c2ccccn2)C3)cc1` [Compound 18, (R)-(6-(4-(2-(2-methylpyrrolidin-1-yl)ethyl)phenyl)-3,4-dihydroisoquinolin-2(1H)-yl)(pyridin-2-yl)methanone] had a Ki in series [3] of 2.15 nM. The “% inhibition of RAMH-induced drinking” value on Histamine H3 Receptor [1] amounted to 66.1%.
